In PubChem BioAssay AID504868 (The Scripps Research Institute Molecular Screening Center, 2011) one finds IC50 data, which are given here for ten compounds.

The structures appear in SMILES notation. Values joined by “and” are separate entries in the source; they are usually repeats but may differ in a detail not shown here. Equal entries are not always repeated. Active and inactive are the calls of the source. The rule behind the calls is not given here.

For the first assay, the target named is Neuropeptides B/W receptor type 1 (Homo sapiens) (UniProt P48145). In words: GPR7 antagonist potency, late-stage follow-up, cell-based, fluorescence, dose response, set 2 (AID 504868). The conditions noted are these: GPR7-expressing cells, fluorescence antagonist readout; run 1.
Usually IC50 stands for the concentration that inhibits the measured activity by half. For `COc1ccc(Oc2c(C3CC3)cnn(-c3ccc(C)cc3)c2=O)cc1`, the half-inhibitory concentration (IC50) was 6220 nM.

As for `COc1ccc(Oc2c(C=O)cnn(-c3ccc(C(C)C)cc3)c2=O)cc1`, the IC50 was 6200 nM.

Consider `Cc1ccc(-n2ncc(Cl)c(Oc3ccc(C(F)(F)F)cc3)c2=O)cc1`, for which the IC50 was 2160 nM.

Regarding `COC(=O)c1cnn(-c2ccc(C(C)C)cc2)c(=O)c1Oc1ccc(OC)cc1`, the concentration for half-maximal inhibition (IC50) is 2730 nM.

In the case of `Cc1ccc(-n2ncc(Cl)c(Oc3ccc(CO)cc3)c2=O)cc1`, the 50% inhibitory concentration (IC50) is 2260 nM.

For `COc1ccc(Oc2c(C#N)cnn(-c3ccc(C(C)C)cc3)c2=O)cc1`, the 50% inhibitory concentration (IC50) was 4190 nM.

Turning to `COc1ccc(Oc2c(-c3ccccc3)cnn(-c3ccc(C)cc3)c2=O)cc1`, the IC50 was > 20000 nM (inactive).

For the compound `COc1ccc(Oc2c(Cl)cnn(-c3ccc(C)cc3)c2=O)cc1`, the IC50 is 1010 nM and 2230 nM.

Take `Cc1ccc(-n2ncc(Cl)c(Oc3ccc(OC(F)(F)F)cc3)c2=O)cc1`: the IC50 is 878 nM.

`COc1ccc(Oc2c(C)cnn(-c3ccc(C(C)C)cc3)c2=O)cc1`: the 50% inhibitory concentration (IC50) was 7480 nM.

Staying with this assay, now noted: GPR7-expressing cells, fluorescence antagonist readout; run 2.
On to `COc1ccc(Oc2c(C3CC3)cnn(-c3ccc(C)cc3)c2=O)cc1`, for which the IC50 is 4000 nM.

Consider `COc1ccc(Oc2c(C=O)cnn(-c3ccc(C(C)C)cc3)c2=O)cc1`, for which the half-inhibitory concentration (IC50) was 4410 nM.

In the case of `Cc1ccc(-n2ncc(Cl)c(Oc3ccc(C(F)(F)F)cc3)c2=O)cc1`, the 50% inhibitory concentration (IC50) was 1050 nM.

With `COC(=O)c1cnn(-c2ccc(C(C)C)cc2)c(=O)c1Oc1ccc(OC)cc1`, the IC50 is 1880 nM.

With `Cc1ccc(-n2ncc(Cl)c(Oc3ccc(CO)cc3)c2=O)cc1`, the IC50 was 844 nM.

Take `COc1ccc(Oc2c(C#N)cnn(-c3ccc(C(C)C)cc3)c2=O)cc1`: the half-inhibitory concentration (IC50) was 2410 nM.

For `COc1ccc(Oc2c(-c3ccccc3)cnn(-c3ccc(C)cc3)c2=O)cc1`, the IC50 is > 20000 nM (inactive).

With `COc1ccc(Oc2c(Cl)cnn(-c3ccc(C)cc3)c2=O)cc1`, the IC50 was 741 nM and 1420 nM.

On to `Cc1ccc(-n2ncc(Cl)c(Oc3ccc(OC(F)(F)F)cc3)c2=O)cc1`, for which the half-maximal inhibitory concentration (IC50) was 518 nM.

On to `COc1ccc(Oc2c(C)cnn(-c3ccc(C(C)C)cc3)c2=O)cc1`, for which the IC50 was 7220 nM.

Staying with this assay, now noted: GPR7-expressing cells, fluorescence antagonist readout; run 3.
Consider `Cc1ccc(-n2ncc(Cl)c(Oc3ccc(C(F)(F)F)cc3)c2=O)cc1`, for which the IC50 was 1800 nM.

Turning to `Cc1ccc(-n2ncc(Cl)c(Oc3ccc(CO)cc3)c2=O)cc1`, the IC50 is 1710 nM.

On to `COc1ccc(Oc2c(-c3ccccc3)cnn(-c3ccc(C)cc3)c2=O)cc1`, for which the IC50 was > 20000 nM (inactive).

As to `COc1ccc(Oc2c(Cl)cnn(-c3ccc(C)cc3)c2=O)cc1`, the IC50 was 1350 nM.

As for `Cc1ccc(-n2ncc(Cl)c(Oc3ccc(OC(F)(F)F)cc3)c2=O)cc1`, the IC50 was 836 nM.
